The source of these data is patent US11000501B2, “Composition for preventing or treating neurological and mental disorders, containing syringaresinol” (SEOUL NATIONAL UNIVERSITY R&DB FOUNDATION, priority 2016, dated 2021).

The structures appear in SMILES notation.

One assay has as its system CA1 neurons. Description: Miniature EPSC (mEPSC) recording in CA1 neurons. It is filed as cell-based, mouse. As for the experimental part: A miniature EPSC (mEPSC) was measured at −70 mV with a pipette solution. In this connection, the pipette solution contained 110 mM K-gluconate, 20 mM KCl, 8 mM NaCl, 10 mM HEPES, 0.5 mM QX-314-C1, 4 mM Mg-ATP, 0.3 mM Na-GTP and 0.5 mM EGTA. The solution had pH 7.25 and 290 mOsm/kg. Voluntary action potentials and IPSCs were blocked by TTX (1 μM) and picrotoxin (50 μM), respectively. For mIPSC recording, the K-gluconate in the pipette solution was replaced with the KCl having the same number of moles as the K-gluconate.
Next, the effect of SYR on miniature EPSC (mEPSC) in CA1 neurons was examined.

For assay [1], the system named is Ca^2+ channel in CA1 neurons. Description: Ca2+ channel current (Ba2+ current) recording in CA1 neurons. It is filed as cell-based, mouse. The following applies: 100 μM; depolarization −90 mV to −10 mV, 50 ms.
The next assay is described as follows: Open field test. It is filed as in vivo, mouse. The following applies: 10 mg/kg intraperitoneally, test 30 minutes after injection, 30-minute test. The protocol:
All experiments were performed using male and female C57BL/6 mice of 4 to 6 weeks of age. An open field test was performed on male mice of 6 to 7 weeks. Animals were maintained with circulating 12/12-h day/night, while daytime starts at 07:00. Three or five animals were housed per one cage. Free available food and water were fed to the mice under specific pathogenic-microorganism free (SPF) conditions. The animal maintenance protocol and all experimental procedures were approved by the Institutional Animal Care and Use Committee (IACUC) of Seoul National University.
In an open field test, we video-recorded a movement of a 7 to 10-week-old mouse in a white plastic chamber (40×40×40 cm) in a darkened room for 30 minutes. Then, the moving distance of the mouse was measured using Ethovision XT (Noldus) software.
To determine the change of the activity of the mice by syringaresinol, we injected syringaresinol at a concentration of 10 mg/kg intraperitoneally into the mice. After 30 minutes, we measured the activity of the mice via an open field test. In this connection, control was injected with DMSO, a solvent used for dissolving syringaresinol. The open field test was conducted for 30 minutes. The activity of the mouse was checked at a 5-minute interval. Further, during the 30-minute test, the total movement distance of the mouse was measured.

On to `COc1cc(C2OCC3C(c4cc(OC)c(O)c(OC)c4)OCC23)cc(OC)c1O` (stereo not shown) [SYR, syringaresinol], for which, in the assay on CA1 neurons, the mEPSC amplitude result was “did not change” and the mEPSC frequency entry is “did not change”. Moreover, in assay [1], the “Ba^2+ current mediated by the Ca^2+ channel” value is given as “rapidly reduced”. Further, in “Open field test”, the “activity of the mouse as fraction of control (movement distance)” value is listed as “¼”.
